Experimental findings from patent publication US6455561B1, “Heterocyclic compounds and their therapeutic use” (Darwin Discovery, Ltd., priority 2000, dated 2002) are described below.

For this assay, the system named is eosinophilia. Briefly: Guinea pig lung model (inhibition of eosinophilia). It is filed as in vivo. The settings on record: dosed at 3 mg/kg. On the procedure: Activity in a guinea pig lung model is measured using the procedures described by Mauser et al, Am. Rev. Respir. Dis. 148:1623 (1993), and Am. J. Respir. Crit. Care Med. 152:467 (1995).

`COCc1cc2c(C(=O)Nc3c(C)noc3C)ccc(OC)c2o1` [Example 10, 7-Methoxy-2-methoxymethylbenzofuran-4-carboxylic Acid (3,5-dimethylisoxazol-4-yl)-amide] returned an inhibition of eosinophilia of 35%.
